Measured values from paper PMC7997574, “Lead Optimization of Benzoxazolone Carboxamides as Orally Bioavailable and CNS Penetrant Acid Ceramidase Inhibitors” (Journal of Medicinal Chemistry, 2020).
Values after ≈ are worked out from the molar mass of the structure shown. Structures can show the parent of a compound that is named as a salt. Where two headings read alike, the source gives them in different places.

How the values were obtained:
[1] = target: T1, AC (Homo sapiens, UniProt Q13510); test: Fluorogenic hAC assay on hAC-enriched lysate of HEK293 cells; format: biochemical; set-up: expressed in transfected cells
T1 sequence (Q13510 22-395): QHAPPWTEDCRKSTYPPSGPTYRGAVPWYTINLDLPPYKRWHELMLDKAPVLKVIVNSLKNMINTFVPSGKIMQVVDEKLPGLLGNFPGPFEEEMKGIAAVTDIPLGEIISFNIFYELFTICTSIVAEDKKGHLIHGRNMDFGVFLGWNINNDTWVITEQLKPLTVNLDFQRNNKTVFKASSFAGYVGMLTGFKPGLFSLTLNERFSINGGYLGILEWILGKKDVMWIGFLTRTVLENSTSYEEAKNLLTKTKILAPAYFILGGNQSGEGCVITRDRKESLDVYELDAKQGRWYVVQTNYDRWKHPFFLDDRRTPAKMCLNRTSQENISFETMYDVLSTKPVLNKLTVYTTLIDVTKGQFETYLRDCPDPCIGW
Protocol: HEK293 cells stably expressing hAC were grown in Dulbecco’s modified Eagle medium (DMEM) containing 10% FBS, 1% glutamine, 1 mM sodium pyruvate, and 500 μg mL^–1 G418. Cells were harvested, and pellets were stored at −80 °C until lysosomal-enriched lysate preparation. Cells were suspended in 20 mM Tris HCl (pH 7.5) with 0.32 M sucrose, sonicated, and centrifuged at 800 × g for 30 min at 4 °C. Supernatants were then centrifuged at 12000 × g for 30 min at 4 °C. Pellets were resuspended in PBS (pH 7.4) and subjected to three freeze–thaw cycles at −80 °C. The suspension was finally centrifuged at 105000 × g for 1 h at 4 °C, and protein concentration was measured in the supernatant with the bicinchoninic acid based protein assay. This hAC-enriched preparation allowed us to further optimize the enzymatic assay and to use small amounts of lysate (2 μg per well) at a 5 μM substrate (Rbm14–12) around its KM (KM = 5.0 μM).
The assay was performed in Optiplate 96-well black plates, with each reaction well containing a mixture of 25 mM NaOAc buffer (pH 4.5) and a fixed amount of protein (2 μg) in a volume of 85 μL. After 10 min of preincubation with test compounds (diluted 20× from DMSO stock solutions at different concentrations), the fluorogenic probe was added (diluted 40× from EtOH stock solution, final concentration 5 μM). After 3 h of incubation at 37 °C, reactions were stopped with 50 μL of MeOH and 100 μL of a 2.5 mg mL^–1 NaIO4 fresh solution in 100 mM glycine/NaOH buffer (pH 10.6). The plates were further incubated for 2 h at 37 °C in the dark, and fluorescence intensities were measured at excitation/emission wavelengths of 355/460 nm. Negative control samples consisted of the same incubation mixture in the absence of protein-enriched extracts. Data were plotted as a function of compound concentrations. IC50 values were calculated by nonlinear regression analysis using GraphPad Prism 5 (GraphPad Software Inc., CA, USA) applying a standard slope curve fitting. The reported IC50 values are the mean of at least three independent experiments performed in three technical replicates.

[2] = Aqueous kinetic solubility assay; format: physicochemical; conditions: PBS, pH 7.4
Protocol: The aqueous kinetic solubility was determined from a 10 mM MeCN stock solution of test compound in Phosphate-Buffered Saline (PBS) at pH 7.4. The study was performed by incubation of an aliquot of 10 mM MeCN stock solution in PBS (pH 7.4) at a target concentration of 250 μM. The incubation was carried out under shaking at 25 °C for 1 h followed by centrifugation at 21100 × g for 30 min. The supernatant was analyzed by UPLC/MS for the quantification of the dissolved compound (in μM) by UV at a specific wavelength (215 nm). […] The UPLC/MS analyses were performed on a Waters ACQUITY UPLC/MS system consisting of a single quadrupole detector (SQD) Mass Spectrometer (MS) equipped with an Electrospray Ionization (ESI) interface and a Photodiode Array Detector (PDA). The PDA range was 210–400 nm. ESI in positive mode was used in the mass scan range of 100–650 Da. The analyses were run on an ACQUITY UPLC BEH C18 column (50 × 2.1 mm ID, particle size 1.7 μm) with a VanGuard BEH C18 precolumn (5 × 2.1 mm ID, particle size 1.7 μm), using 10 mM NH4OAc in H2O at pH 5 adjusted with AcOH (A) and 10 mM NH4OAc in MeCN/H2O (95:5) at pH 5 (B) as the mobile phase. Values are reported as mean values of ≥2 experiments performed.

[3] = In vitro microsomal stability study; format: in vitro ADME; conditions: mouse liver microsomes
Protocol: Freshly prepared 10 mM MeCN stock solution of test compound was preincubated at 37 °C for 15 min with mouse liver microsomes added in 0.1 M Tris HCl buffer (pH 7.4). The final concentration was 4.6 μM. After preincubation, the cofactors (NADPH, G6P, G6PDH, and MgCl2 predissolved in 0.1 M Tris HCl) were added to the incubation mixture, and the incubation was continued at 37 °C for 1 h. At each time point (0, 5, 15, 30, and 60 min), 30 μL of incubation mixture was diluted with 200 μL of cold MeCN spiked with 200 nM internal standard followed by centrifugation at 3300 × g for 15 min. The supernatant was further diluted with H2O (1:1) for analysis. The concentration of the test compound was quantified by LC/MS/MS on a Waters ACQUITY UPLC/MS TQD system consisting of a TQD MS equipped with an ESI interface. The analyses were run on an ACQUITY UPLC BEH C18 (50 × 2.1 mm ID, particle size 1.7 μm) with a VanGuard BEH C18 precolumn (5 × 2.1 mm ID, particle size 1.7 μm) at 40 °C. For each compound, the appropriate mobile phase was chosen. ESI was applied in positive mode. The percentage of test compound remaining at each time point relative to t = 0 was calculated. t1/2 was determined by a one-phase decay equation using a nonlinear regression of compound concentration vs time. Values are the mean of at least two independent experiments performed in two technical replicates.

[4] = In vitro plasma stability study; format: in vitro ADME; conditions: mouse plasma; read-out: m-plasma t1/2
Protocol: Freshly prepared 10 mM MeCN stock solution of test compound was diluted 50-fold with DMSO/H2O (1:1) and incubated at 37 °C for 2 h with mouse plasma added in 5% DMSO (preheated at 37 °C for 10 min). The final concentration was 2 μM. At each time point (0, 5, 15, 30, 60, and 120 min), 50 μL of incubation mixture was diluted with 200 μL of cold MeCN spiked with 200 nM internal standard followed by centrifugation at 3300 × g for 20 min. The supernatant was further diluted with H2O (1:1) for analysis. The concentration of test compound was quantified by LC/MS/MS on a Waters ACQUITY UPLC/MS TQD system consisting of a TQD MS equipped with an ESI interface. The analyses were run on an ACQUITY UPLC BEH C18 (50 × 2.1 mm ID, particle size 1.7 μm) with a VanGuard BEH C18 precolumn (5 × 2.1 mm ID, particle size 1.7 μm) at 40 °C. For each compound, the appropriate mobile phase was chosen. ESI was applied in positive mode. The response factors, calculated on the basis of the internal standard peak area, were plotted over time. When possible, response vs time profiles were fitted with Prism (GraphPad Software, Inc., USA) to estimate compound t1/2 in plasma. Values are the mean of at least two independent experiments performed in two technical replicates.

[5] = hAC expressed in HEK-293 cells, read-out: hAC IC50 (μM)±SD
[6] = supplementary csv, read-out: hAC, IC50

| Structure (SMILES) | IC50 [1, 5] [µM] | IC50 [1, 6] [µM] | further results |
| --- | --- | --- | --- |
| CC(C)CNC(=O)n1c(=O)oc2cc(C3CCCCN3C)ccc21 (racemic) [compound 26, (±)-N-Isobutyl-6-(1-methyl-2-piperidyl)-2-oxo-1,3-benzoxazole-3-carboxamide] | 1.01 ± 0.432 | 1.19 ± 0.435 | solubility at 1 h [2]: 190 µM (≈ 63 µg/mL); half-life at 1 h, 4.6 µM ([3]; pH 7.4, read-out: m-LM t1/2): 15 min; half-life at 2 µM [4]: 30 min |
| CC(C)CNC(=O)n1c(=O)oc2cc(C3CCCN(C)C3)ccc21 (racemic) [compound 27, (±)-N-Isobutyl-6-(1-methyl-3-piperidyl)-2-oxo-1,3-benzoxazole-3-carboxamide] | 1.75 ± 0.705 | 1.62 ± 0.649 | solubility at 1 h [2]: > 250 µM; m-LM [% at 60 min] ([3]; % remaining at 60 min): 70%; half-life at 4.6 μM ([3]; pH 7.4, read-out: m-LM t1/2): > 60 min; half-life at 2 µM [4]: 50 min |
| O=C(NCCOCc1ccccc1)n1c(=O)oc2cc(-c3ccc(F)cc3)ccc21 [2d, N-(2-Benzyloxyethyl)-6-(4-fluorophenyl)-2-oxo-1,3-benzoxazole-3-carboxamide] | – | 4.7 ± 6.04 | – |
| CCCCCNC(=O)n1c(=O)oc2cc(-c3ccc(F)cc3)ccc21 [2e, 6-(4-Fluorophenyl)-2-oxo-N-pentyl-1,3-benzoxazole-3-carboxamide] | – | – | IC50 ([1]; read-out: hAC IC50): 0.06 µM; solubility at 1 h [2]: < 1 µM |
| CCOCCNC(=O)n1c(=O)oc2cc(-c3ccc(F)cc3)ccc21 [2f, N-(2-Ethoxyethyl)-6-(4-fluorophenyl)-2-oxo-1,3-benzoxazole-3-carboxamide] | – | 2.3 | – |
| COCCCNC(=O)n1c(=O)oc2cc(-c3ccc(F)cc3)ccc21 [2g, 6-(4-Fluorophenyl)-N-(3-methoxypropyl)-2-oxo-1,3-benzoxazole-3-carboxamide] | – | 2.6 ± 0.176 | – |
| O=C1C(=O)N(C(=O)NCCCCc2ccccc2)c2ccccc21 [8c, 2,3-Dioxo-N-(4-phenylbutyl)indoline-1-carboxamide] | > 10 | – | – |
| O=C1Cc2ccccc2N1C(=O)NCCCCc1ccccc1 [8d, 2-Oxo-N-(4-phenylbutyl)indoline-1-carboxamide] | > 10 | – | – |
| CN1CCc2oc(=O)n(C(=O)NCCCCc3ccccc3)c2C1 [12c, 5-Methyl-2-oxo-N-(4-phenylbutyl)-6,7-dihydro-4H-oxazolo[4,5-c]pyridine-3-carboxamide Hydrochloride] | – | 0.516 ± 0.165 | – |
| O=C(NCCCCc1ccccc1)n1c2c(oc1=O)CCN(Cc1ccccc1)C2 [12d, 5-Benzyl-2-oxo-N-(4-phenylbutyl)-6,7-dihydro-4H-oxazolo[4,5-c]pyridine-3-carboxamide] | – | 0.436 ± 0.073 | – |
| CC(=O)N1CCc2oc(=O)n(C(=O)NCCCCc3ccccc3)c2C1 [12e, 5-Acetyl-2-oxo-N-(4-phenylbutyl)-6,7-dihydro-4H-oxazolo[4,5-c]pyridine-3-carboxamide] | – | 0.293 ± 0.107 | – |
| CN1CCC(c2ccc3[nH]c(=O)oc3c2)CC1 [21g, 6-(1-Methyl-4-piperidyl)-3H-1,3-benzoxazol-2-one] | – | – | inhibition of hAC ([1]; tested at 1 and 10 μM): not able to inhibit hAC |

The next lines start with results.

| IC50 [1, 5] [µM] | IC50 [1, 6] [µM] | Structure (SMILES) | further results |
| --- | --- | --- | --- |
| 0.089 ± 0.054 | – | O=C(NCCCCc1ccccc1)n1c(=O)oc2cc(C3CCCCC3)ccc21 [22a, 6-Cyclohexyl-2-oxo-N-(4-phenylbutyl)-1,3-benzoxazole-3-carboxamide] | – |
| 0.068 ± 0.022 | – | O=C(NCCCCc1ccccc1)n1c(=O)oc2cc(C3CCOCC3)ccc21 [22b, 2-Oxo-N-(4-phenylbutyl)-6-tetrahydropyran-4-yl-1,3-benzoxazole-3-carboxamide] | – |
| 1.05 ± 0.312 | – | CCOCCNC(=O)n1c(=O)oc2cc(C3CCN(C)CC3)ccc21 [22l, N-(2-Ethoxyethyl)-6-(1-methyl-4-piperidyl)-2-oxo-1,3-benzoxazole-3-carboxamide] | – |
| 2.1 | – | CCC(C)NC(=O)n1c(=O)oc2cc(C3CCN(C)CC3)ccc21 (stereo not shown) [22n, 6-(1-Methyl-4-piperidyl)-2-oxo-N-sec-butyl-1,3-benzoxazole-3-carboxamide] | – |
| 0.08 ± 0.017 | – | O=C(NCCCCc1ccccc1)n1c(=O)oc2cc(N3CCCCC3)ccc21 [23a, 2-Oxo-N-(4-phenylbutyl)-6-piperidin-1-ium-1-yl-1,3-benzoxazole-3-carboxamide Hydrochloride] | – |
| 0.192 ± 0.087 | – | O=C(NCCCCc1ccccc1)n1c(=O)oc2cc(N3CCOCC3)ccc21 [23b, 6-Morpholino-2-oxo-N-(4-phenylbutyl)-1,3-benzoxazole-3-carboxamide] | – |
| 0.16 ± 0.014 | – | O=C(NCCCCc1ccccc1)n1c(=O)oc2cc(N3CCS(=O)(=O)CC3)ccc21 [23c, 6-(1,1-Dioxo-1,4-thiazinan-4-yl)-2-oxo-N-(4-phenylbutyl)-1,3-benzoxazole-3-carboxamide] | – |
| 0.211 ± 0.065 | – | CC(C)N1CCN(c2ccc3c(c2)oc(=O)n3C(=O)NCCCCc2ccccc2)CC1 [23h, 6-(4-Isopropylpiperazin-1-yl)-2-oxo-N-(4-phenylbutyl)-1,3-benzoxazole-3-carboxamide] | – |
| 0.127 ± 0.037 | – | CC(C)CN1CCN(c2ccc3c(c2)oc(=O)n3C(=O)NCCCCc2ccccc2)CC1 [23i, 6-(4-Isobutylpiperazin-1-Yl)-2-oxo-N-(4-phenylbutyl)-1,3-benzoxazole-3-carboxamide] | – |
